Data taken from US7667052B2 (Eisai R&D Management Co., Ltd., priority 2003, dated 2010).

Test system: transcription from VEGF promoter
Assay: VEGF transcription-suppressing activity, VEGF-PLAP reporter in U251/1-8 cell
Assay type: cell-based
Conditions: Homo sapiens, U-251; U251/1-8 cell, PLAP activity, low oxygen 18 hours; read-out: IC50 values of VEGF transcription-suppressing activity (range given)
Text: In order to prepare reporter system reflecting transcription from VEGF promoter, VEGF promoter sequence was cloned, and inserted in secretory alkali phosphatase (PLAP) vector to construct reporter vector.
In order to obtain the promoter region of human VEGF, VEGF genome was cloned from phage library. PCR primers having the sequences described in Sequence Numbers 1 and 2 were designed based on VEGF cDNA (GenBank accession number: X62568) and a fragment having about 340 bp was obtained by carrying out PCR. Human genome phage library (Human genomic library, Clontech Co.) was screened using this as a probe to obtain pUC18-VEGFA containing about 5.4 kb of VEGF 5′ flanking region. The pUC18-VEGFA was cleaved by KpnI/NheI, VEGF promoter region of about 2.3 kb obtained was inserted in the multi cloning site KpnI/NheI of secretory alkali phosphatase (PLAP) vector (Goto et al, Mol. Pharmacol., 49, 860-873, 1996), and thus, VEGF-PLAP vector was constructed.
The above-mentioned VEGF-PLAP vector was introduced in the U251 cell cultured in the DULBECCO-modified eagle medium (DMEM; manufactured by SIGMA Co., Ltd.) containing 10% fetal calf serum, and cultured in the presence of 1 mg/ml G418 (Merck Co.) to establish G418 resistant stable clone (U251/1-8 cell).
It was confirmed that U251/1-8 cell secreted PLAP under low oxygen (2% O2 incubator) in the same manner as in the report (Cell. Mol. Biol. Res. 40, 35-39, 1994) and was a reporter system reflecting the transcription from VEGF promoter. The screening of the compound suppressing VEGF production which was induced by low oxygen stimulation was carried out below using the clone.
In order to remove the influence of alkaline phosphates in serum, U251/1-8 cell was rinsed twice with the adequate amount of PBS (Phosphate buffered saline), diluted in the DMEM medium containing 10% of serum in which alkaline phosphates was inactivated by the treatment of 60° C. for 20 min., and dispensed in 96-well plates by 4×10^4 cells/180 μl.
After culturing at 37° C. overnight in a CO2 incubator (5% CO2), 20 μL of the above-mentioned incubation solution containing the test compound diluted with 3-fold succession was added, and then they were incubated in a low oxygen ([…]) incubator for 18 hours. With respect to the PLAP activity in the culture supernatants, 10 μl of the supernatants was added to 50 μl of 0.28 M Na2CO3—NaHCO3 buffer solution (pH 10.0, 8.0 mM MgSO4), and finally 50 μl of alkaline phosphatase substrate (LUMISTEIN, Genomescience Co.) was added. After reacting for one hour, the alkaline phosphatase activity of the PLAP was measured by detecting the chemical luminescence by a micro plate reader (Perkin-Elmer Co.).
The PLAP activity under usual oxygen was set as 0%, the PLAP activity of cell which was treated under low oxygen was set as 100%, and the concentration suppressing the PLAP activity by 50% was set as the IC50 value of PLAP.

Work on CCC(OC(=O)c1ccccc1)C(C)C1OC1CC(C)/C=C/C=C(\C)C1OC(=O)CC(O)CCC(C)(O)C(OC(C)=O)/C=C/C1C (stereo not drawn) [B30-3, (8E,12E,14E)-7-acetoxy-21-benzoloxy-3,6-dihydroxy-6,10,12,16,20-pentamethyl-18,19-epoxytricosa-8,12,14-trien-11-olide] yielded an IC50 of 0.5 to 100 nM.

CCC(O)C(C)C1OC1CC(C)/C=C/C=C(\C)C1OC(=O)CC(O)CCC(C)(O)C(OC(=O)N2CC(C)NC(C)C2)/C=C/C1C (stereo not drawn) [B81, (8E,12E,14E)-3,6,21-Trihydroxy-6,10,12,16,20-pentamethyl-7-((3,5-dimethylpiperazin-1-yl)carbonyl)oxy-18,19-epoxytricosa-8,12,14-trien-11-olide] was tested, and the IC50 was 0.5 to 100 nM.

Compound CCC(O)C(C)C1OC1CC(C)/C=C/C=C(\C)C1OC(=O)CC(O)CCC(C)(O)C(OC(=O)N2CCN(C)CC2)/C=C/C1C (stereo not drawn) [B50, (8E,12E,14E)-3,6,21-Trihydroxy-6,10,12,16,20-pentamethyl-7-((4-methylpiperazin-1-yl)carbonyl)oxy-18,19-epoxytricosa-8,12,14-trien-11-olide] has an IC50 of 0.5 to 100 nM.

Compound CCC(O)C(C)C1OC1CC(C)/C=C/C=C(\C)C1OC(=O)CC(O)CCC(C)(O)C(OC(=O)N2CCN(CCO)CC2)/C=C/C1C (stereo not drawn) [B66, (8E,12E,14E)-3,6,21-Trihydroxy-6,10,12,16,20-pentamethyl-7-((4-(2-hydroxyethyl)piperazin-1-yl)carbonyl)oxy-18,19-epoxytricosa-8,12,14-trien-11-olide] has an IC50 of 0.5 to 100 nM.

For CCC(O)C(C)C1OC1C(O)C(C)/C=C/C=C(\C)C1OC(=O)CC(O)CCC(C)(O)C(OC(C)=O)/C=C/C1C (stereo not drawn) [11107P], the IC50 was 1 to 100 nM.

Compound CCC(O)C(C)C1OC1CC(C)/C=C/C=C(\C)C1OC(=O)CC(O)CCC(C)(O)C(OC(=O)NCCCN2CCN(C)CC2)/C=C/C1C (stereo not drawn) [B78, (8E,12E,14E)-3,6,21-Trihydroxy-6,10,12,16,20-pentamethyl-7-N-(3-(4-methylpiperazin-1-yl)propyl)carbamoyloxy-18,19-epoxytricosa-8,12,14-trien-11-olide] has an IC50 of 0.5 to 100 nM.

CCC(OS(=O)(=O)c1ccc(C)cc1)C(C)C1OC1CC(C)/C=C/C=C(\C)C1OC(=O)CC(O)CCC(C)(O)C(OC(C)=O)/C=C/C1C (stereo not drawn) [B17, (8E,12E,14E)-7-Acetoxy-3,6-dihydroxy-21-(toluene-4-sulfonyloxy)-6,10,12,16,20-pentamethyl-18,19-epoxytricosa-8,12,14-trien-11-olide] showed an IC50 of 0.5 to 100 nM.

In the case of CCC(O)C(C)C1OC1CC(C)/C=C/C=C(\C)C1OC(=O)/C=C\CCC(C)(O)C(OC(C)=O)/C=C/C1C (stereo not drawn) [B43-2, (2Z,8E,12E,14E)-7-acetoxy-6,21-dihydroxy-6,10,12,16,20-pentamethyl-18,19-epoxytricosa-2,8,12,14-tetraen-11-olide], the IC50 is reported as 0.5 to 100 nM.

With CCC(O)C(C)C1OC1CC(C)/C=C/C=C(\C)C1OC(=O)CC(O)CCC(C)(O)C(OC(=O)NCc2ccncc2)/C=C/C1C (stereo not drawn) [B58, (8E,12E,14E)-3,6,21-Trihydroxy-6,10,12,16,20-pentamethyl-7-N-(4-pyridylmethyl)carbamoyloxy-18,19-epoxytricosa-8,12,14-trien-11-olide] the IC50 was 0.5 to 100 nM.

Compound CCC(O)C(C)C1OC1CC(C)/C=C/C=C(\C)C1OC(=O)CC(O)CCC(C)(O)C(OC(=O)NCCCN2CCOCC2)/C=C/C1C (stereo not drawn) [B60, (8E,12E,14E)-3,6,21-Trihydroxy-6,10,12,16,20-pentamethyl-7-N-(3-(morpholin-4-yl)propyl)carbamoyloxy-18,19-epoxytricosa-8,12,14-trien-11-olide] has an IC50 of 0.5 to 100 nM.

In the case of CCOCC(=O)OC1CCC(C)(O)C(OC(C)=O)/C=C/C(C)C(/C(C)=C/C=C/C(C)CC2OC2C(C)C(O)CC)OC(=O)C1 (stereo not drawn) [B24, (8E,12E,14E)-7-Acetoxy-3-ethoxyacetoxy-6,21-dihydroxy-6,10,12,16,20-pentamethyl-18,19-epoxytricosa-8,12,14-trien-11-olide], the IC50 is reported as 0.5 to 100 nM.

CCC(O)C(C)C1OC1CC(C)/C=C/C=C(\C)C1OC(=O)CC(O)CCC(C)(O)C(OC(=O)NCc2cccnc2)/C=C/C1C (stereo not drawn) [B57, (8E,12E,14E)-3,6,21-Trihydroxy-6,10,12,16,20-pentamethyl-7-N-(3-pyridylmethyl)carbamoyloxy-18,19-epoxytricosa-8,12,14-trien-11-olide] showed an IC50 of 0.5 to 100 nM.

CCC(O)C(C)C1OC1CC(C)/C=C/C=C(\C)C1OC(=O)CC(O)CCC(C)(O)C(OC(=O)CN2CCOCC2)/C=C/C1C (stereo not drawn) [B40, (8E,12E,14E)-3,6,21-Trihydroxy-6,10,12,16,20-pentamethyl-7-(morpholin-4-yl)acetoxy-18,19-epoxytricosa-8,12,14-trien-11-olide] gave an IC50 of 0.5 to 100 nM.

CCC(O)C(C)C1OC1CC(C)/C=C/C=C(\C)C1OC(=O)CC(O)CCC(C)(O)C(OC(=O)NCCN2CCOCC2)/C=C/C1C (stereo not drawn) [B59, (8E,12E,14E)-3,6,21-Trihydroxy-6,10,12,16,20-pentamethyl-7-N-(2-(morpholin-4-yl)ethyl)carbamoyloxy-18,19-epoxytricosa-8,12,14-trien-11-olide] gave an IC50 of 0.5 to 100 nM.

For CCC(OC(=O)CN(C)C)C(C)C1OC1CC(C)/C=C/C=C(\C)C1OC(=O)CC(O)CCC(C)(O)C(OC(C)=O)/C=C/C1C (stereo not drawn) [B28, (8E,12E,14E)-7-Acetoxy-3,6-dihydroxy-6,10,12,16,20-pentamethyl-21-dimethylaminoacetoxy-18,19-epoxytricosa-8,12,14-trien-11-olide], the IC50 was 0.5 to 100 nM.

Compound CCC(O)C(C)C1OC1CC(C)/C=C/C=C(\C)C1OC(=O)CC(O)CCC(C)(O)C(OC(=O)c2ccccc2)/C=C/C1C (stereo not drawn) [B41, (8E,12E,14E)-7-Benzoyloxy-3,6,21-trihydroxy-6,10,12,16,20-pentamethyl-18,19-epoxytricosa-8,12,14-trien-11-olide] has an IC50 of 0.5 to 100 nM.

In the case of CCC(O)C(C)C1OC1CC(C)/C=C/C=C(\C)C1OC(=O)CC(O)CCC(C)(O)C(OC(=O)N2CCN(C(C)=O)CC2)/C=C/C1C (stereo not drawn) [B51, (8E,12E,14E)-7-((4-Acetylpiperazin-1-yl)carbonyl)oxy-3,6,21-trihydroxy-6,10,12,16,20-pentamethyl-18,19-epoxytricosa-8,12,14-trien-11-olide], the IC50 is reported as 0.5 to 100 nM.

CCC(O)C(C)C1OC1CC(C)/C=C/C=C(\C)C1OC(=O)CC(O)CCC(C)(O)C(OC(=O)N(C)C2CCN(C)CC2)/C=C/C1C (stereo not drawn) [B80, (8E,12E,14E)-3,6,21-Trihydroxy-6,10,12,16,20-pentamethyl-7-N-methyl-N-(1-methylpiperidin-4-yl)carbamoyloxy-18,19-epoxytricosa-8,12,14-trien-11-olide] gave an IC50 of 0.5 to 100 nM.

For CCCC(=O)OC1/C=C/C(C)C(/C(C)=C/C=C/C(C)CC2OC2C(C)C(O)CC)OC(=O)CC(O)CCC1(C)O (stereo not drawn) [B42], the IC50 was 0.5 to 100 nM.

Compound CCC(O)C(C)C1OC1CC(C)/C=C/C=C(\C)C1OC(=O)CC(O)CCC(C)(O)C(OC(=O)NC(=O)CCl)/C=C/C1C (stereo not drawn) [B69, (8E,12E,14E)-7-(N-Chloroacetyl)carbamoyloxy-3,6,21-trihydroxy-6,10,12,16,20-pentamethyl-18,19-epoxytricosa-8,12,14-trien-11-olide] has an IC50 of 0.5 to 100 nM.

CCC(O)C(C)C1OC1CC(C)/C=C/C=C(\C)C1OC(=O)CC(OC(=O)c2ccccc2)CCC(C)(O)C(OC(C)=O)/C=C/C1C (stereo not drawn) [B30-2, (8E,12E,14E)-7-acetoxy-3-benzoloxy-6,21-dihydroxy-6,10,12,16,20-pentamethyl-18,19-epoxytricosa-8,12,14-trien-11-olide] gave an IC50 of 0.5 to 100 nM.

In the case of CCC(OC(C)=O)C(C)C(OC(C)=O)C(Cl)CC(C)/C=C/C=C(\C)C1OC(=O)CC(O)CCC(C)(O)C(OC(C)=O)/C=C/C1C (stereo not drawn) [B21-4, (8E,12E,14E)-7,19,21-triacetoxy-18-chloro-3,6-dihydroxy-6,10,12,16,20-pentamethyltricosa-8,12,14-trien-11-olide], the IC50 is reported as 0.5 to 100 nM.

CCC(O)C(C)C1OC1CC(C)/C=C/C=C(\C)C1OC(=O)CC(OC(N)=O)CCC(C)(O)C(OC(C)=O)/C=C/C1C (stereo not drawn) [B35-1, (8E,12E,14E)-7-Acetoxy-3-carbamoyloxy-6,21-dihydroxy-6,10,12,16,20-pentamethyl-18,19-epoxytricosa-8,12,14-trien-11-olide] was tested, and the IC50 was 0.5 to 100 nM.

CCC(O)C(C)C1OC1CC(C)/C=C/C=C(\C)C1OC(=O)CC(O)CCC(C)(O)C(OC(=O)NC2CC(C)(C)N(C)C(C)(C)C2)/C=C/C1C (stereo not drawn) [B82, (8E,12E,14E)-3,6,21-Trihydroxy-6,10,12,16,20-pentamethyl-7-N-(1,2,2,6,6-pentamethylpiperidin-4-yl)carbamoyloxy-18,19-epoxytricosa-8,12,14-trien-11-olide] was tested, and the IC50 was 0.5 to 100 nM.
